Laboratory results from patent US9920061B2, “Imidazo[1,5-A]pyrimidinyl carboxamide compounds and their use in the treatment of medical disorders” (Lysosomal Therapeutics Inc., priority 2016, dated 2018).
Values after ≈ are worked out from the molar mass of the structure shown. Where two headings read alike, the source gives them in different places.

Tests used:
[1] = target: T1, glucocerebrosidase (Gcase) (Homo sapiens, UniProt P04062); assay: Glucocerebrosidase (Gcase) activation assay, 4-methylumbelliferyl-beta-D-glucopyranoside substrate, with saposin C; type: biochemical
T1 sequence (P04062 40-536): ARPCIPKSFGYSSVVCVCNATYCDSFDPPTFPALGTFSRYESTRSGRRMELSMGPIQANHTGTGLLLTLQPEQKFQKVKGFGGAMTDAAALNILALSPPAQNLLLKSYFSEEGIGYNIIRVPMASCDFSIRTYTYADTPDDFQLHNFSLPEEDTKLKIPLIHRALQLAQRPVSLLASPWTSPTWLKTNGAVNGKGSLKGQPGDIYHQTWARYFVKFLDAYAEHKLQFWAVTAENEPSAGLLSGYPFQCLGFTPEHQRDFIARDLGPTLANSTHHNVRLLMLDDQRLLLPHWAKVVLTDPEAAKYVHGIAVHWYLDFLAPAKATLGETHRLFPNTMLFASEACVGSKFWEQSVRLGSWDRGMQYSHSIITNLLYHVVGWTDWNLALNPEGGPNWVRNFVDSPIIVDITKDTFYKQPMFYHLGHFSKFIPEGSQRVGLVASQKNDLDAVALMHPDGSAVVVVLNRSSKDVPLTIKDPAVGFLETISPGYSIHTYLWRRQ
Experimental: The ability of exemplary compounds to activate glucocerebrosidase (Gcase) was measured.
A 484 μL aliquot of a 1.0 mg/mL solution of phosphatidylserine (PS) (Sigma P7769) in chloroform was evaporated under a stream of nitrogen for 1 hour. The lipid film was dissolved over 4 minutes of vigorous vortexing in 40 mL of 176 mM K2HPO4/50 mM citric acid (pH 4.7) containing 7.5 μL of triton X-100, resulting in a mixed micellar preparation with a composition of 0.32 mM triton and 0.37 mol % PS. 4-Methylumbelliferyl-beta-D-glucopyranoside (ACROS-337025000) was dissolved in the micellar solution to a final concentration of 2 mM for use as the reaction substrate.
Test compounds were diluted to the desired concentrations with dimethylsulfoxide (DMSO) from 10 mM stocks, and 0.41 μL of the DMSO compound mixture was added to 100 μL of micellar solution containing 10 nM GCase and 100 nM saposin C (Enzo ALX-201-262-C050). Pre-incubation was allowed to occur for 30 minutes at room temperature, after which the reaction was initiated by combining 25 μL of substrate solution with 25 μL of compound/GCase/saposin mixture. The reaction proceeded for 15 minutes at room temperature and was stopped by adding 150 μL of 1M glycine, pH 12.5. The endpoint of the reaction was monitored by measuring fluorescence intensity (excitation: 365 nm; emission: 440 nm) on a SpectraMax i3 instrument (Molecular Devices). Test compounds were screened at 1.0 and 0.1 μM final concentration, and subsequent 8-point dose response curves were obtained using 3-fold dilutions from a maximum final concentration of […].

[2] = Compound solubility in water; type: physicochemical
[3] = test compound at 0.1 μM, read-out: Percent Gcase Activation, 0.1 μM Test Compound
[4] = test compound at 1.0 μM, read-out: Percent Gcase Activation, 1 μM Test Compound
[5] = 0.1 μM test compound, read-out: Percent Gcase Activation 0.1 μM Test Compound
[6] = 1 μM test compound, read-out: Percent Gcase Activation 1 μM Test Compound

| SMILES | activation at 0.1 µM [1, 3] | activation at 1 µM [1, 4] | solubility ([2]; in water) | activation at 0.1 µM [1, 5] | activation at 1 µM [1, 6] | solubility [2] |
| --- | --- | --- | --- | --- | --- | --- |
| Cc1cc(-c2cccc(-c3ncco3)c2)nc2c(C(=O)NC(C3CC3)C(F)(F)F)ncn12 (stereo not drawn) [IV-60] | > 20% | > 60% | 2.3 µg/mL (≈ 5.21 µM) | – | – | – |
| Cc1cc(-c2cncs2)nc2c(C(=O)NC(C)(C)C3CC3)ncn12 [III-58] | – | – | – | < 10% | > 60% | 44.4 µg/mL (≈ 130 µM) |
| Cc1cc(-c2cncc(F)c2)nc2c(C(=O)N[C@@H](C)C3CC3)ncn12 [III-105] | – | – | – | < 10% | 30 to 60% | 24.9 µg/mL (≈ 73.4 µM) |
| Cc1cc(-c2cc(F)cc(C#N)c2)nc2c(C(=O)NC(C3CC3)C(F)(F)F)ncn12 (stereo not drawn) [IV-110] | > 20% | > 60% | 1.2 µg/mL (≈ 2.88 µM) | – | – | – |
| Cc1cc(-c2cnsc2)nc2c(C(=O)N[C@H](C3CC3)C(F)(F)F)ncn12 [IV-52] | 10 to 20% | > 60% | 15.4 µg/mL (≈ 40.4 µM) | – | – | – |
| COc1cccc(-c2cc(C)n3cnc(C(=O)NC(C4CC4)C(F)(F)F)c3n2)c1 (stereo not drawn) [III-182] | – | – | – | > 20% | > 60% | 1.5 µg/mL (≈ 3.71 µM) |
| Cc1cc(-c2ccc3c(c2)OCO3)nc2c(C(=O)NC(C)C(F)(F)F)ncn12 (stereo not drawn) [IV-76] | > 20% | > 60% | 1.2 µg/mL (≈ 3.06 µM) | – | – | – |
| CCc1cc(N2CCCC(F)(F)C2)nc2c(C(=O)NC(C3CC3)C(F)(F)F)ncn12 (stereo not drawn) [III-137] | – | – | – | 10 to 20% | > 60% | 12 µg/mL (≈ 27.8 µM) |
| Cc1cc(-c2cccnc2)nc2c(C(=O)N[C@@H](C)c3ccccc3F)ncn12 [III-45] | – | – | – | < 10% | 30 to 60% | 5 µg/mL (≈ 13.3 µM) |
| Cc1cc(-c2cccnc2)nc2c(C(=O)NC(C)C3CC3)ncn12 (stereo not drawn) [III-43] | – | – | – | < 10% | < 30% | 31.1 µg/mL (≈ 96.8 µM) |
| Cc1cc(-c2cccc(F)c2)nc2c(C(=O)N[C@@H](C3CC3)C(F)(F)F)ncn12 [IV-20] | > 20% | > 60% | 0.7 µg/mL (≈ 1.78 µM) | – | – | – |
| Cc1cc(-c2ccncc2)nc2c(C(=O)NC(CC(C)C)C3CC3)ncn12 (stereo not drawn) [III-28] | – | – | – | < 10% | > 60% | 19.7 µg/mL (≈ 54.2 µM) |
| COCc1cc(-c2cc(F)cc(F)c2)nc2c(C(=O)N[C@@H](C)C3CC3)ncn12 [III-116] | – | – | – | 10 to 20% | > 60% | 0.6 µg/mL (≈ 1.55 µM) |
| Cc1cc(Oc2ccccc2F)nc2c(C(=O)N[C@@H](C)C3CC3)ncn12 [III-120] | – | – | – | < 10% | 30 to 60% | 27.7 µg/mL (≈ 78.2 µM) |
| Cc1cc(-c2cccc3ncnn23)nc2c(C(=O)NC(C3CC3)C(F)(F)F)ncn12 (stereo not drawn) [IV-41] | < 10% | 30 to 60% | 3.5 µg/mL (≈ 8.43 µM) | – | – | – |
| CCOc1cccc(-c2cc(C)n3cnc(C(=O)N[C@@H](C)C4CC4)c3n2)n1 [III-155] | – | – | – | < 10% | 30 to 60% | 1.7 µg/mL (≈ 4.65 µM) |
| C#Cc1cccc(C(NC(=O)c2ncn3c(C)cc(C)nc23)C(F)(F)F)c1 (stereo not drawn) [III-3] | – | – | – | > 20% | > 60% | 2.2 µg/mL (≈ 5.91 µM) |
| Cc1cc(-c2ccc(F)c(Cl)n2)nc2c(C(=O)N[C@@H](C)C3CC3)ncn12 [III-108] | – | – | – | < 10% | 30 to 60% | 14.5 µg/mL (≈ 38.8 µM) |
| Cc1cc(-c2ccc(F)cc2)n2cnc(C(=O)N[C@@H](C)C3CC3)c2n1 [III-13] | – | – | – | < 10% | < 30% | 25 µg/mL (≈ 73.9 µM) |

| SMILES | activation at 0.1 µM [1, 3] | activation at 1 µM [1, 4] | solubility ([2]; in water) | activation at 0.1 µM [1, 5] | activation at 1 µM [1, 6] | solubility [2] |
| --- | --- | --- | --- | --- | --- | --- |
| Cc1cc(-c2cccc3ncoc23)nc2c(C(=O)N[C@H](C3CC3)C(F)(F)F)ncn12 [IV-17] | > 20% | > 60% | 1.1 µg/mL (≈ 2.65 µM) | – | – | – |
| COc1cc(F)cc(-c2cc(C)n3cnc(C(=O)NC(C)(C)C)c3n2)c1 [III-126] | – | – | – | > 20% | > 60% | 0.1 µg/mL (≈ 0.281 µM) |
| Cc1cc(-c2ccns2)nc2c(C(=O)NC(C)(C)C3CC3)ncn12 [III-60] | – | – | – | 10 to 20% | > 60% | 4 µg/mL (≈ 11.7 µM) |
| COc1cc(F)cc(-c2cc(C)n3cnc(C(=O)N[C@H](C)C(F)(F)F)c3n2)c1 [IV-58] | > 20% | > 60% | 2.3 µg/mL (≈ 5.8 µM) | – | – | – |
| Cc1cc(-c2ccc3c(c2)OCO3)nc2c(C(=O)N[C@@H](C)C3CC3)ncn12 [IV-28] | > 20% | > 60% | 1.1 µg/mL (≈ 3.02 µM) | – | – | – |
| COc1c(C#N)cccc1-c1cc(C)n2cnc(C(=O)NC(C)C(F)(F)F)c2n1 (stereo not drawn) [IV-66] | < 10% | < 30% | 23.9 µg/mL (≈ 59.3 µM) | – | – | – |
| C#CC(C)(C)NC(=O)c1ncn2c(C)cc(-c3cc(F)cc(F)c3)nc12 [III-188] | – | – | – | 10 to 20% | > 60% | 0.3 µg/mL (≈ 0.847 µM) |
| Cc1cc(-c2ccccn2)nc2c(C(=O)N[C@H]3CC[C@H](OCC(C)C)CC3)ncn12 [III-96] | – | – | – | < 10% | 30 to 60% | 6.6 µg/mL (≈ 16.2 µM) |
| CCc1cc(-c2ccns2)nc2c(C(=O)NC(C3CC3)C(F)(F)F)ncn12 (stereo not drawn) [III-165] | – | – | – | > 20% | > 60% | 4.7 µg/mL (≈ 11.9 µM) |
| Cc1cc(-c2cnsc2)nc2c(C(=O)NC(C3CC3)C(F)(F)F)ncn12 (stereo not drawn) [IV-51] | > 20% | > 60% | 2.1 µg/mL (≈ 5.51 µM) | – | – | – |
| CCc1cc(-c2cccc(F)c2)nc2c(C(=O)N[C@@H](C)C3CC3)ncn12 [III-113] | – | – | – | > 20% | > 60% | 1.7 µg/mL (≈ 4.82 µM) |
| CC[C@H](C)NC(=O)c1ncn2c(C)cc(-c3cccc(F)c3)nc12 [III-132] | – | – | – | 10 to 20% | > 60% | 18.6 µg/mL (≈ 57 µM) |
| Cc1cc(-c2cccnc2)nc2c(C(=O)NC(C3CC3)C(F)(F)F)ncn12 (stereo not drawn) [III-71] | – | – | – | < 10% | > 60% | 22.5 µg/mL (≈ 59.9 µM) |
| Cc1cc(-c2cccc(-c3ncccn3)c2)nc2c(C(=O)NC(C3CC3)C(F)(F)F)ncn12 (stereo not drawn) [IV- 61] | > 20% | > 60% | 1.1 µg/mL (≈ 2.43 µM) | – | – | – |
| Cc1cc(-c2cccc(C#N)c2)nc2c(C(=O)N[C@@H](C)C3CC3)ncn12 [III-150] | – | – | – | 10 to 20% | > 60% | 10.1 µg/mL (≈ 29.2 µM) |
| C#CC(C)(C)NC(=O)c1ncn2c(C)cc(-c3cccc(OC)c3)nc12 [III-157] | – | – | – | > 20% | > 60% | 2.1 µg/mL (≈ 6.03 µM) |
| CCC(NC(=O)c1ncn2c(C)cc(-c3ccccn3)nc12)c1ccc(F)cc1 (stereo not drawn) [III-31] | – | – | – | 10 to 20% | > 60% | 2.7 µg/mL (≈ 6.93 µM) |
| Cc1cc(-c2ccc(F)cc2C#N)nc2c(C(=O)NC(C3CC3)C(F)(F)F)ncn12 (stereo not drawn) [IV-80] | > 20% | > 60% | 3.7 µg/mL (≈ 8.87 µM) | – | – | – |
